In patent publication US20250281929A1, “MICROFLUIDIC DEVICE AND USES THEREOF” (CASE WESTERN RESERVE UNIVERSITY, priority 2020, published 2025):

Columns and labels:
healthy RBCs = assay: microfluidic assay of RBC mediated microvascular occlusion (micropillar arrays with integrated electrical impedance measurement); assay type: cell-based, human; details: RBCs stiffened with 0.08% w/v glutaraldehyde 10 min, 20% hematocrit, mean±SD, N=4; for RBC Electrical Impedance Index (REI): impedance at 10 kHz
Method: In order to validate the microfluidic device functionality of assessing RBC mediated microvascular occlusion, healthy RBCs were isolated and treated with 0.08% w/v glutaraldehyde (Sigma Aldrich) for 10 min at room temperature. The glutaraldehyde-stiffened RBCs were then washed with PBS, mixed with untreated healthy RBCs from the same donor at either 1% or 2% v/v ratio, and re-suspended in PBS at 20% hematocrit for testing. Healthy RBCs from the same healthy donor were included in the study design as control.
Microchannels were initially washed with absolute ethanol (100%) and PBS, which was followed by incubation with 2% bovine serum albumin (BSA) overnight to prevent non-specific binding of RBCs to the channel walls. A Flow-EZ™ microfluidic flow control system (Fluigent, Lowell, MA) was used to regulate the flow (FIG. 12). An impedance analyzer (Agilent 4294A, Santa Clara, CA) coupled with a custom printed-circuit board was used to perform electrical impedance measurements. Briefly, impedance magnitude across each of the 3-μm to 10-μm micropillar arrays was recorded over the frequency range of 40 Hz-1 MHz before introducing blood into the microchannel and after completing the washing step. […]
Prior to the experiment, PBS was perfused through the microchannel at 100 mBar for 15 min to allow for any volumetric changes of the microchannel. Thereafter, the baseline impedance reading was obtained for each micropillar array without stopping the PBS flow. […] A second impedance reading was then obtained for each micropillar array upon the conclusion of the post-perfusion wash step. […] For select experiments, the electrical impedance of the 3-μm micropillar array was continuously monitored over the entire duration of the experiment.
To determine the association between the electrical impedance change and microcapillary occlusion in the microchannel, an Olympus IX83 inverted motorized microscope with Olympus CellSense live-cell imaging and analysis software were used to obtain high-resolution microscopic images. The images were further processed by Adobe Photoshop software (San Jose, CA), in which the obstructed microcapillaries were manually counted. […]
[formula] [formula] • where, • n=Total number of capillary networks within the area of interest • i=The i^th capillary network within the area of interest • Oi; =The number of microcapillary occlusion in the i^th capillary network • Ni=Total number of microcapillaries in the i^th capillary network • Ii1=The first electrical impedance reading of the i^th capillary network • Ii2=The second electrical impedance reading of the i^th capillary network […]

RBC = assay: MIRCA functional assay of RBC deformability, quantitative microcapillary occlusion (Occlusion Index); assay type: cell-based, human; details: people with variant SCD (HbSC) and SCA (HbSS)
Source text: Abnormal RBC deformability contributes to the underlying pathophysiology of SCD, and we tested this in variant SCD and sickle cell trait (SCT). We have developed MIRCA, a novel functional assay of RBC deformability, assessed by quantitative microcapillary occlusion (‘Occlusion Index, OI’, FIG. 18). This in vitro test recapitulates key geometric features of the capillary bed: >80,000 narrow openings and side anastomoses ‘on-a-chip’, under normoxia or hypoxia (FIG. 18).

[1] = sample 98% healthy RBCs and 2% stiff RBCs
[2] = sample 99% healthy RBCs and 1% stiff RBCs

| SMILES | RBC Electrical Impedance Index (REI) (healthy RBCs; [1]) | RBC Occlusion Index (ROI) (healthy RBCs; [1]) | RBC Electrical Impedance Index (REI) (healthy RBCs; [2]) | RBC Occlusion Index (ROI) (healthy RBCs; [2]) | association of RBC Occlusion Index (OI) with drug use (RBC) |
| --- | --- | --- | --- | --- | --- |
| O=CCCCC=O [glutaraldehyde] | 20.99% | 36.16% | 9.40% | 17.15% | – |
| NC(=O)NO [hydroxyurea] | – | – | – | – | inversely associated |
